These results are taken from paper PMC11851430, “Workflow for E3 Ligase Ligand Validation for PROTAC Development” (ACS Chemical Biology, 2025).

One assay has as its target T1, AURKA (Homo sapiens, UniProt O14965).
T1 sequence (O14965 1-403): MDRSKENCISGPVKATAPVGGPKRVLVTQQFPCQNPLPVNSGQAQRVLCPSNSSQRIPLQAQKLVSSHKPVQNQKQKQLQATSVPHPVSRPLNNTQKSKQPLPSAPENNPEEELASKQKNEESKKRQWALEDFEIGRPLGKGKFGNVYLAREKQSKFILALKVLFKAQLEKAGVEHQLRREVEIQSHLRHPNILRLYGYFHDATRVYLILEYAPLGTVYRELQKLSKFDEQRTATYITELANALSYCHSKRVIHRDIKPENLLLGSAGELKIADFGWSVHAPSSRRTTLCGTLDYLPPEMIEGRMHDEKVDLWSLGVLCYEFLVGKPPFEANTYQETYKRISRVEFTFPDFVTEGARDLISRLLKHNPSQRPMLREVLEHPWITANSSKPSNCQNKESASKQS
The experiment in a line: Western blot assay. Format: cell-based. Details: endogenous in cells; host or cells: Jurkat. Particulars: Jurkat cells, 6 h. The procedure:
(§1) Two mL of Jurkat cells were seeded into 6 well plates (Greiner) at a density of 5·10 5 cells/mL.
(§2) The following day, cells were treated with compounds at according concentrations or DMSO for 6 hours and then lysed with 6 M Urea at 4 °C for 20 minutes. The lysates were centrifuged for 15 minutes at 16000 g and the supernatant was collected to perform the Western-Blot.
(§3) Protein quantification was performed using nanodrop One. The SDS samples were prepared […]
(§4) The samples were separated by a BIS-TRIS polyacrylamide gel polyacrylamide gel, 100 V for 1:45) followed by transfer to PVDF membranes (Millipore) at 350 mA for 140 minutes. The membranes were blocked using 5%wt/vol BSA (in TBS-T, 20 mM Tris-HCl, pH 7.5, 150 mM NaCl and 0.1% (vol/vol) Tween 20) at room temperature for 1 hour.
(§5) The blots were incubated with respective primary antibodies at 1:1000 dilution (Cell Signaling technologies: Aurora A (D3E4Q), ITK (2F12) and GAPDH (D4C6R)) at 4 °C overnight. The blots were washed with TBS-T thrice and incubated with 1:5000 dilution of horseradish peroxidase (HRP)-labelled respective secondary antibodies (Cell Signaling technologies, Anti- […]
(§6) The blots were washed with TBS-T thrice and then incubated with chemiluminescent HRP substrate (Bio-Rad) for 2 minutes. The blots were imaged and the signals were detected using the Amersham ImageQuant 800 (Cytiva).
(§7) Cell culture. Human MV4-11 ([…]) and human Jurkat ([…]) cells were cultured in RPMI- […]
(§8) °C in 5% CO2. Both media were supplemented with 10% FBS and 1% penicillin/streptomycin. […]

In a further assay the target is T2, ABL1 (Homo sapiens, UniProt P00519).
T2 construct: endogenous in cells; host or cells: Jurkat (Clone E6.1) cell lysate
T2 sequence (P00519 whole entry): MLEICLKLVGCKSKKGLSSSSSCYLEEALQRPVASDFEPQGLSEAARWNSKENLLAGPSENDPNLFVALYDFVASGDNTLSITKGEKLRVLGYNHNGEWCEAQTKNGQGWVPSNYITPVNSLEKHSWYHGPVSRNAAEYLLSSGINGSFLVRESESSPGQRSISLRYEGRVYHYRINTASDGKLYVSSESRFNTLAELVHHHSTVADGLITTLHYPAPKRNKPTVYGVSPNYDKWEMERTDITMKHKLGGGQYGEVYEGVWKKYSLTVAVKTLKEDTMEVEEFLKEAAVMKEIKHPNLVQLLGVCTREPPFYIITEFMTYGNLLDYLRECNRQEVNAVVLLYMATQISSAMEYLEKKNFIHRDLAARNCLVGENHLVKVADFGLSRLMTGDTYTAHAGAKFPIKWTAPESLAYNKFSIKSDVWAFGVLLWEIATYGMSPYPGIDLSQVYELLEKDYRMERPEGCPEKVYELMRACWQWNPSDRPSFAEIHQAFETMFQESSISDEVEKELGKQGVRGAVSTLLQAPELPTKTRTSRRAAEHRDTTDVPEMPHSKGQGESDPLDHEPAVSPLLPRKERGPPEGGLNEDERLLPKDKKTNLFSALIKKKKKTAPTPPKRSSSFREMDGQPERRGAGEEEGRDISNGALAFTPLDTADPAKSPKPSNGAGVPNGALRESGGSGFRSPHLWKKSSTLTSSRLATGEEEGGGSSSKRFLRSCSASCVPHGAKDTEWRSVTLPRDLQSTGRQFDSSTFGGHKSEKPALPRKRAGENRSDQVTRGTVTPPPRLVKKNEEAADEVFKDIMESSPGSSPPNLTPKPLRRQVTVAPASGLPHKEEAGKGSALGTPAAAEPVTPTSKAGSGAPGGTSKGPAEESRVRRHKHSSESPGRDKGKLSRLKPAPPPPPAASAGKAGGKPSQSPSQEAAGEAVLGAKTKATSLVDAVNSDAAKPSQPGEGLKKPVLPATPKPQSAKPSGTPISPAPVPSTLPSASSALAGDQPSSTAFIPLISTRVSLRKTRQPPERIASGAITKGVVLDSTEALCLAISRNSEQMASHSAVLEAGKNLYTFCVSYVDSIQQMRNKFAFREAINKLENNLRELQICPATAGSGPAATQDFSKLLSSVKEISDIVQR
The experiment in a line: Kinobeads selectivity profiling. Format: binding. To be noted: Jurkat lysate, dose series given in nM, read-out: Kd (apparent dissociation constant, corrected for protein depletion). How it is done: (§9) Excitation and emission filters […]
(§10) curve. […] Measurements were
(§11) Kinobeads selectivity profiling of PROTACs
(§12) (Multiplexion, Heidelberg, Germany).
(§13) The cell lysate was ultracentrifuged and diluted
(§14) NaF, 1 mM DTT, protease inhibitors and phosphatase inhibitors to a final concentration of 5 mg/ml as determined by Bradford assay. For selectivity profiling of compounds the cell lysate (2.5 mg of total proteins per pulldown) was pre-incubated with increasing compound […]
(§15) µM) for 45 min at 4 °C in an end-over-end shaker. Subsequently, lysates were incubated with Kinobeads epsilon (17 µL settled beads) for 30 min at 4 °C. To assess the degree of protein depletion from the lysates by Kinobeads, the flow-through of the DMSO control was recovered […]
(§16) for a pulldown of pulldown experiment where the lysate was incubated a second time with fresh Kinobeads. Beads were washed in 3 steps with buffer containing 0.4%, 0.2% and no NP40.
(§17) Bound proteins were reduced with 50 mM DTT in 8 M Urea, 40 mM Tris-HCl pH 7.4 for 30 min at room temperature. After alkylation with 55 mM chloroacetamide (CAA), the Urea concentration was reduced to 1 – 2 M and proteins were digested using trypsin. Acidified peptides were desalted and concentrated using SepPak tC18 µEluation plates (Waters).
(§18) Samples were frozen, dried by vacuum centrifugation and stored at -20 °C.
(§19) LC-MS2 analysis. Peptides were measured on a Dionex Ultimate3000 nano HPLC coupled online to an Orbitrap Fusion Lumos (Thermo Fisher Scientific) mass spectrometer.
(§20) Peptides were dissolved in 0.1% formic acid and delivered to a trap column (ReproSil-pur C18-AQ, 5 μm, Dr. Maisch, 20 mm × 75 μm, self-packed) at a flow rate of 5 μL/min in LC solvent A (0.1 % formic acid).4 After 10 min of loading, peptides were transferred to an analytical column (ReproSil Gold C18-AQ, 3 μm, Dr. Maisch, 400 mm × 75 μm, self-packed) and separated using […]
(§21) acetonitrile) in LC solvent A.
(§22) The Orbitrap Fusion Lumos was operated as follows: positive polarity; spray voltage 2.1 kV, […]
(§23) A full-scan (MS1) was recorded from 360 to 1300 m/z with a resolution of 60,000 in the Orbitrap in profile mode. The MS1 AGC target was set to 4e5 and the maxIT was set to 50 ms, RF lens value was set to 50%. Based on the full scans, precursors were targeted for the MS/MS scans […]
(§24) intensity exceeded 2.5e4. The dynamic exclusion was set to 30 sec and exclude isotopes was switched on. The MS2 quadrupole isolation window was set to 1.7 m/z. Peptide fragmentation occurred in the ion routing multipole (IRM) by HCD with a fixed collision energy mode, the […]

The target of a further assay is T3, AAK1 (Homo sapiens, UniProt Q2M2I8).
T3 construct: endogenous in cells; host or cells: Jurkat (Clone E6.1) cell lysate
T3 sequence (Q2M2I8 whole entry): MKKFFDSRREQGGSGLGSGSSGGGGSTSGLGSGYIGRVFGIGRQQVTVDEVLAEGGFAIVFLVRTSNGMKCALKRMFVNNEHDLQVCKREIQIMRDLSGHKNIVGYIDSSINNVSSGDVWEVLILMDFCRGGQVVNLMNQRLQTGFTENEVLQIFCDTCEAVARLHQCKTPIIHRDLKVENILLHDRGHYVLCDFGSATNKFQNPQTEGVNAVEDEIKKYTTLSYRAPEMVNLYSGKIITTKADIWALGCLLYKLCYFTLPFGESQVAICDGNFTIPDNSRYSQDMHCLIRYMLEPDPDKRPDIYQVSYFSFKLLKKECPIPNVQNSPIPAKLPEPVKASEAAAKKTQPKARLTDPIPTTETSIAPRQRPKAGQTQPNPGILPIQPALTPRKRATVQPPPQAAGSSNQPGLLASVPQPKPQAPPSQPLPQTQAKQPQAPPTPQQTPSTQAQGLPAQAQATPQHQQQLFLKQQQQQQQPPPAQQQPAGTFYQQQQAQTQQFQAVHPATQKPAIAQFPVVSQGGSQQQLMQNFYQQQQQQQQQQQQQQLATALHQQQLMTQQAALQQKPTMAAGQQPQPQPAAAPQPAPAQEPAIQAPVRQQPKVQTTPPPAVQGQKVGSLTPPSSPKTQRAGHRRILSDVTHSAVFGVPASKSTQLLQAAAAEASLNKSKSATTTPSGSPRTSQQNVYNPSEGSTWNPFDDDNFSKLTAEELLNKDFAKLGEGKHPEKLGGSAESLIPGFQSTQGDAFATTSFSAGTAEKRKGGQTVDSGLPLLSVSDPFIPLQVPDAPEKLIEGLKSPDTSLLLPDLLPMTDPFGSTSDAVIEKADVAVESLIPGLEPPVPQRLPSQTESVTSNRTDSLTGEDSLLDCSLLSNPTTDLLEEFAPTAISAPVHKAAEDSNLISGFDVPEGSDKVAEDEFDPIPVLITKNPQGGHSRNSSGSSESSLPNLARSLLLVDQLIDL
The experiment in a line: Kinobeads selectivity profiling. Format: binding. To be noted: Jurkat lysate, dose series given in nM, read-out: Kd (apparent dissociation constant, corrected for protein depletion). How it is done: as §9, §10, §11, §12, §13, §14, §15, §16, §17, §18, §19, §20, §21, §22, §23, §24

A further assay concerns the target full-length AAK1 (Homo sapiens, UniProt Q2M2I8). The experiment in a line: NanoBRET target engagement assay, intact and permeabilized cells. To be noted: NanoBRET, mean of duplicates.
The target of another assay is T4, ITK (Homo sapiens, UniProt Q08881).
T4 construct: endogenous in cells; host or cells: Jurkat
T4 sequence (Q08881 1-620): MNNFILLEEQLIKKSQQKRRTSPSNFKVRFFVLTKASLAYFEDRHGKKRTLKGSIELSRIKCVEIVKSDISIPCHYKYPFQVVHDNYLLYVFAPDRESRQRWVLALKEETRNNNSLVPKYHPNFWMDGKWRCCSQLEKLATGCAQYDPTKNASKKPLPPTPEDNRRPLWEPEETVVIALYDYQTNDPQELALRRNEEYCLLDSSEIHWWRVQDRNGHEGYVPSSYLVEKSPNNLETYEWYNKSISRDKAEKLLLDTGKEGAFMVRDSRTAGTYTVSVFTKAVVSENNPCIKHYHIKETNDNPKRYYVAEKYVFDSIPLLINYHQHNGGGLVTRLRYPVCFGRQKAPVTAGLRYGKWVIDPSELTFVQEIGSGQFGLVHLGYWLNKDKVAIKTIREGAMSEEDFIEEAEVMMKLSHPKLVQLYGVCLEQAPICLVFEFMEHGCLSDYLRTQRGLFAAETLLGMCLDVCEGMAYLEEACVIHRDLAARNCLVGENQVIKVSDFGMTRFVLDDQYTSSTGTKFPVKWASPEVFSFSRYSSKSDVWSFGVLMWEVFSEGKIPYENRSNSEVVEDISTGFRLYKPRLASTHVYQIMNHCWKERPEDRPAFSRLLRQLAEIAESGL
In words: Western blot assay. Particulars: Jurkat cells, 6 h. Format: cell-based. The procedure: as §1, §2, §3, §4, §5, §6, §7, §8
For orientation: In western blotting, separated proteins are transferred to a membrane and probed.

The next assay relates to Jurkat cells. The experiment in a line: CellTiterGlo cell viability assay. Format: cell-based, human. Particulars: Homo sapiens, 24 h, mean of triplicates, ^b/^c values estimated, read-out: IC50±sd/μM (cell viability). How it is done:
The effects of the compounds on cell viability was determined using the CellTiter-Glo® 2.0 Cell Viability Assay (Promega: G9241) following manufacturer’s protocol. Ten µL of Jurkat cells at […]
After equilibration, PROTACs were titrated at various concentrations using an Echo acoustic […]
volume of CellTiter-Glo® 2.0 reagent (10 µL) was added to each well and cells were incubated for 10 minutes at room temperature. Filtered luminescence was measured on a PHERAstar plate reader (BMG Labtech) and data was evaluated using GraphPad Prism 9 software employing a normalized curve it with the following equation: Y=Bottom + (Top-Bottom)/(1+10(LogEC50-X) *HillSlope).
Sample preparation. Jurkat cells (ATCC © HTB-22) were cultured in RPMI (Thermo: […]

Setting [1] is: AAK1 intact (IC50±sd)/μM, intact cells, ^a values estimated by extrapolation.
Setting [2] is: AAK1 permeabilized (IC50±sd)/μM, permeabilized cells.

Sequence of full-length AAK1 (Q2M2I8 whole entry): as the sequence (Q2M2I8 whole entry) above
Experimental for full-length AAK1: Compounds were pipetted at various concentrations using an Echo acoustic dispenser (Labcyte), immediately followed by Tracer K10 (Promega, Tracer DB ID: T000008) for AAK1 and Aurora A and VHL Tracer (Promega, Tracer DB ID: T000019) for VHL, at an optimum KD concentration chosen from TracerDB ( tracerdb.org), respectively.
To measure the BRET signal, the NanoBRET® NanoGlo Substrate (Promega:
N1573) was added as per the manufacturer’s protocol, and filtered luminescence was measured on a PHERAstar plate reader (BMG Labtech) equipped with a luminescence filter pair (450 nm BP filter (donor) and 610 nm LP filter (acceptor)). For NanoBRET® measurement in permeabilized cells, 25 nL of digitonin (0.05 μg/μL) was pipetted into each well using an
After incubation, the BRET signals were measured by a PHERAstar plate reader (BMG Labtech) following the same procedure as intact NanoBRET® measurement. Competitive displacement data were then normalized to controls and were plotted using GraphPad Prism 9 software employing a normalized 3-parameter curve fit with the following equation:

For the compound `O=C(COc1cccc2c1C(=O)N(C1CCC(=O)NC1=O)C2=O)NCCOCCOCCNC(=O)C1(Cc2cccc(Nc3nccs3)n2)CCC(Oc2cccc(Cl)c2F)CC1` (centres unmarked) [JB300, reference compound], the “AURKA protein levels (Western blot)” value on AURKA is “strong degradation”.

As for `CC(C)(C)OC(=O)N1CCN(c2cc(Nc3cc(C4CC4)[nH]n3)nc(Nc3ccc(CC#N)cc3)n2)CC1` [compound 4], the Kd was determined as 2970 nM at ABL1 and 29.4 nM on AAK1. For the same compound, the IC50 on full-length AAK1 (setting [1]) was 0.005 µM; against full-length AAK1 (setting [2]), 0.003 µM.

Regarding `COc1cc(C)c(Sc2cnc(NC(=O)c3ccc(N4CCN(CCCCCCCNC(=O)COc5cccc6c5C(=O)N(C5CCC(=O)NC5=O)C6=O)CC4)cc3)s2)cc1C(=O)N1CCN(C(C)=O)CC1` (centres unmarked) [BSJ-05–037, reference compound], the “ITK protein levels (Western blot)” value at ITK is listed as “only weak degradation of ITK”.

On to `NC(=O)c1ccccc1Nc1nc(Nc2ccc(N3CCNCC3)cc2)ncc1Cl` [compound 6], for which the Kd at ABL1 worked out at 420 nM; on AAK1, 6.4 nM. Moreover, the IC50 on full-length AAK1 (setting [1]) was 0.004 ± 0.001 µM; on full-length AAK1 (setting [2]) it was 0.004 µM; in the assay with Jurkat cells it was 0.7 ± 0.2 µM.
